Measured values taken from ChEMBL document CHEMBL5241074, “Dual-target compounds for Alzheimer's disease: Natural and synthetic AChE and BACE-1 dual-inhibitors and their structure-activity relationship (SAR)” (Eur J Med Chem, 2021).

Key:
Acetylcholinesterase [1] = target: T1, Acetylcholinesterase (Homo sapiens, UniProt P22303); experiment: Inhibition of AChE (unknown origin)
Beta-secretase 1 [2] = target: T2, Beta-secretase 1 (Homo sapiens, UniProt P56817); experiment: Inhibition of BACE1 (unknown origin)
Acetylcholinesterase [3] = target: T1, Acetylcholinesterase; experiment: Inhibition of AChE (unknown origin) at 100 uM relative to control
Beta-secretase 1 [4] = target: T2, Beta-secretase 1; experiment: Inhibition of BACE1 (unknown origin) at 100 uM relative to control
Beta-secretase 1 [5] = target: T2, Beta-secretase 1; experiment: Inhibition of BACE1 (unknown origin) at 2.5 uM relative to control
Beta-secretase 1 [6] = target: T2, Beta-secretase 1; experiment: Inhibition of BACE1 (unknown origin) at 5 uM relative to control
Acetylcholinesterase [7] = target: Acetylcholinesterase (Electrophorus electricus, UniProt O42275); experiment: Inhibition of Electrophorus electricus AchE
Acetylcholinesterase [8] = target: T1, Acetylcholinesterase; experiment: Inhibition of human recombinant AchE
Beta-secretase 1 [9] = target: T2, Beta-secretase 1; experiment: Inhibition of human recombinant BACE1

T1 sequence (P22303 whole entry): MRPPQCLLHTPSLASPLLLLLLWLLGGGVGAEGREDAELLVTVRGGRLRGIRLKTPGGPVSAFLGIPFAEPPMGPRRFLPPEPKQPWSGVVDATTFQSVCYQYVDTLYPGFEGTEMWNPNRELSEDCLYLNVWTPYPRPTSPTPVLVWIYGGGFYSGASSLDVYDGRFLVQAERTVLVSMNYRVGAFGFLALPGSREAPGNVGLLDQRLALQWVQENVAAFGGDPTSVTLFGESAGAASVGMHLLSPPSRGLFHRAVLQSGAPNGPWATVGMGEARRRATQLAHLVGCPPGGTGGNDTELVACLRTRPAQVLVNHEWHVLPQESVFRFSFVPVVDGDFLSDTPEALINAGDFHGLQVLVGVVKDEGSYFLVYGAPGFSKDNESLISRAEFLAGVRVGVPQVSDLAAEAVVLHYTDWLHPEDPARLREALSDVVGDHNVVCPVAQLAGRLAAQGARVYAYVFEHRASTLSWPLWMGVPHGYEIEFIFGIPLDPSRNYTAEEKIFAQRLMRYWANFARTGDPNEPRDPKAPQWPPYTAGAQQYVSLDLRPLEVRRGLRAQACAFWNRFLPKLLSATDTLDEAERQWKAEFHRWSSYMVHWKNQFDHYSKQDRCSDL
T2 sequence (P56817 whole entry): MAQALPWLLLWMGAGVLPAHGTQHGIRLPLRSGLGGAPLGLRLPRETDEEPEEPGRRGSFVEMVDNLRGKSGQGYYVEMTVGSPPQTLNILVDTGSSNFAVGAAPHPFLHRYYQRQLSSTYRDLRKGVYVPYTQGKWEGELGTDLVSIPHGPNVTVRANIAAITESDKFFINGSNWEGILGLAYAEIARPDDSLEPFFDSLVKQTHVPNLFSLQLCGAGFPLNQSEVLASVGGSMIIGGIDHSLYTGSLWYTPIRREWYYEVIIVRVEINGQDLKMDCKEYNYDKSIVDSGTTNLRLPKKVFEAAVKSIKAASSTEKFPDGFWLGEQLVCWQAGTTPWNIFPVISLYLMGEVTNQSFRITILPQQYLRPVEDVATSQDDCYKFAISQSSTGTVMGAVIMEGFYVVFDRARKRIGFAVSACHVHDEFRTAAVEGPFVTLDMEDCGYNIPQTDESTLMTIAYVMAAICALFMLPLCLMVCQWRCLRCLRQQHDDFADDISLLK
Acetylcholinesterase (Electrophorus electricus, UniProt O42275), sequence (O42275 whole entry): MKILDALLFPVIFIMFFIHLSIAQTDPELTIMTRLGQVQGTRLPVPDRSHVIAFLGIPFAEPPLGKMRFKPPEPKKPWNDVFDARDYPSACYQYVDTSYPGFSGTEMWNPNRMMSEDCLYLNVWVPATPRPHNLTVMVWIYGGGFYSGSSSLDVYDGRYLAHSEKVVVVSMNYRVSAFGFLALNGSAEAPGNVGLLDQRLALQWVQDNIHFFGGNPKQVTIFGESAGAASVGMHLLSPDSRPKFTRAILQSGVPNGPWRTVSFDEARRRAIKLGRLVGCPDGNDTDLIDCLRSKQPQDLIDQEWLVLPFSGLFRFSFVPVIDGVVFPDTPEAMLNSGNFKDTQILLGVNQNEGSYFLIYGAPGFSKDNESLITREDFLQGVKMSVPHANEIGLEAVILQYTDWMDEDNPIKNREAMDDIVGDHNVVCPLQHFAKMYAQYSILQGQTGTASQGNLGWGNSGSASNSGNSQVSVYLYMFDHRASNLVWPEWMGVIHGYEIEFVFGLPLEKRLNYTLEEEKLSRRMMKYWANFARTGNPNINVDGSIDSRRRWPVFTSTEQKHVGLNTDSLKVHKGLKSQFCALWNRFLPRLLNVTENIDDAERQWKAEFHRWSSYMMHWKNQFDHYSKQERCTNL

O=C(/C=C/c1ccc(F)cc1)c1cc(I)c(Br)cc1O
IC50 (Acetylcholinesterase [1]): 11 nM | IC50 (Beta-secretase 1 [2]): 4.7 nM

CC(C)=CCc1c(O)ccc(C(=O)/C=C/c2ccc(O)cc2)c1O
inhibition (Acetylcholinesterase [3]): 83% | inhibition (Beta-secretase 1 [4]): 34%

O=C(NCCCCCCCNc1c2c(nc3cc(Cl)ccc13)CCCC2)c1ccc2nc(-c3ccc(Cl)cc3)c3c(c2c1)OCCC3
inhibition (Beta-secretase 1 [5]): 14.5%

O=C(CCc1ccc2nc(-c3ccccc3)c3c(c2c1)OCCC3)NCCCCCCNc1c2c(nc3cc(Cl)ccc13)CCCC2
inhibition (Beta-secretase 1 [5]): 19.6%

COc1cc(O)c(C(=O)/C=C/c2ccc(O)cc2)cc1CC=C(C)C
inhibition (Acetylcholinesterase [3]): 46% | inhibition (Beta-secretase 1 [4]): 68%

O=C(/C=C/c1ccc(O)c(O)c1)O[C@@H]1[C@H](O)C[C@@](O)(C(=O)O)C[C@H]1OC(=O)/C=C/c1ccc(O)c(O)c1
IC50 (Acetylcholinesterase [1]): 2140 nM | IC50 (Beta-secretase 1 [2]): 3310 nM

COc1cc2c(cc1OC)CC(CC1CCN(CCCNc3c4c(nc5cc(Cl)ccc35)CC3C=C(C)CC4C3)CC1)C2 (racemic)
IC50 (Acetylcholinesterase [1]): 5.37 nM

COc1ccc(-c2cc3cc4c(=O)c(/C=N/Nc5ccc(C(F)(F)F)cc5)coc4cc3o2)cc1
IC50 (Acetylcholinesterase [1]): 5400 nM | IC50 (Beta-secretase 1 [2]): 25300 nM

CC12CC(c3c(O)cc(-c4cc5ccc(O)cc5o4)cc3O)CC3c4ccc(O)cc4OC31C2 (stereo not drawn)
IC50 (Acetylcholinesterase [1]): > 200000 nM | IC50 (Beta-secretase 1 [2]): 1040 nM

O=c1c(O)c(-c2ccc(F)cc2)oc2cc(F)c(I)cc12
IC50 (Acetylcholinesterase [1]): 3.23 nM | IC50 (Beta-secretase 1 [2]): 32.2 nM

COc1ccccc1NCC1CCN(Cc2ccccc2)CC1
IC50 (Acetylcholinesterase [1]): 157 nM | IC50 (Beta-secretase 1 [2]): 277 nM

COc1ccc(-c2oc3cc(OC)c(I)cc3c(=O)c2O)cc1
IC50 (Acetylcholinesterase [1]): 7.19 nM | IC50 (Beta-secretase 1 [2]): 22.4 nM

COc1ccc(NCC2CCN(Cc3ccccc3)CC2)cc1OC
IC50 (Acetylcholinesterase [1]): 145 nM | IC50 (Beta-secretase 1 [2]): 243 nM

COc1cc(O)c(C(=O)/C=C/c2ccc(F)cc2)cc1I
IC50 (Acetylcholinesterase [1]): 9.38 nM | IC50 (Beta-secretase 1 [2]): 25.1 nM

Cc1cc2c(c(C)c1CCO[C@@H]1O[C@H](CO)[C@@H](O)[C@H](O)[C@H]1O)C(=O)[C@H](C)C2
IC50 (Acetylcholinesterase [1]): 2550 nM | IC50 (Beta-secretase 1 [2]): 18000 nM

COc1ccc(NC(=O)C2CCN(C(=O)c3ccccc3)CC2)cc1
IC50 (Acetylcholinesterase [1]): 9.78 nM | IC50 (Beta-secretase 1 [2]): 19.1 nM

COc1cc2c(cc1OC)CC(CC1CCN(CCCNc3c4c(nc5cc(Cl)ccc35)CC3C=C(C)CC4C3)CC1)C2 (single isomer, unassigned; (-)) [listing 1 of 2 here]
IC50 (Acetylcholinesterase [1]): 2.61 nM

C/C=C1/C(O[C@@H]2O[C@H](CO)[C@@H](O)[C@H](O)[C@H]2O)OC=C(C(=O)OC)C1CC(=O)OCCc1ccc(O)c(O)c1 (stereo partly drawn)
IC50 (Beta-secretase 1 [2]): 2760 nM

Cc1cc2c(c(C)c1CCO[C@@H]1O[C@H](CO)[C@@H](O)[C@H](O)[C@H]1O)C(=O)C(C)(C)[C@H]2O
IC50 (Acetylcholinesterase [1]): 27400 nM | IC50 (Beta-secretase 1 [2]): 10700 nM

COc1cc(/C=C/c2nnc(-c3ccc(C(F)(F)F)cc3)o2)ccc1O
IC50 (Acetylcholinesterase [1]): 0.068 nM | IC50 (Beta-secretase 1 [2]): 0.255 nM

CCC1=CC2Cc3nc4cc(Cl)ccc4c(NCCCN4CCC(CC5Cc6cc(OC)c(OC)cc6C5)CC4)c3C(C1)C2 (racemic)
inhibition (Beta-secretase 1 [6]): 18%

COc1ccc(/C=C/C(=O)c2cc(I)c(OC)cc2O)cc1
IC50 (Acetylcholinesterase [1]): 11 nM | IC50 (Beta-secretase 1 [2]): 70.8 nM

O=c1c(/C=N/Nc2ccc(C(F)(F)F)cc2)coc2c1ccc1oc(-c3cccc(F)c3)cc12
IC50 (Acetylcholinesterase [1]): 10400 nM | IC50 (Beta-secretase 1 [2]): 15800 nM

O=c1c(O)c(-c2ccc(Cl)cc2)oc2cc(F)c(I)cc12
IC50 (Acetylcholinesterase [1]): 3.45 nM | IC50 (Beta-secretase 1 [2]): 16.7 nM

O=c1c(O)c(-c2ccc(O)c(O)c2)oc2cc(O)cc(O)c12 [QUERCETIN]
IC50 (Acetylcholinesterase [1]): 2910 nM

COc1cc2c(cc1OC)CC(CC1CCN(CCCNc3c4c(nc5cc(Cl)ccc35)CC3C=C(C)CC4C3)CC1)C2 (single isomer, unassigned; (-)) [listing 2 of 2 here]
inhibition (Beta-secretase 1 [6]): 30.8%

Cc1cccc(C(=O)N2Cc3ccc(N4C(=O)c5ccccc5C4=O)cc3CC2=O)c1
IC50 (Acetylcholinesterase [1]): 25.5 nM | IC50 (Beta-secretase 1 [2]): 4.45 nM

CCCCCCCCCCCC1=CC(=O)C=CC1=O
IC50 (Acetylcholinesterase [7]): 2500 nM | IC50 (Acetylcholinesterase [8]): 7910 nM | IC50 (Beta-secretase 1 [9]): 2110 nM

COc1ccc(NCC2CCN(Cc3ccccc3)CC2)cc1
IC50 (Acetylcholinesterase [1]): 165 nM | IC50 (Beta-secretase 1 [2]): 253 nM

C/C(=C\C1=CCN(C(=O)CCc2ccccc2)C(=O)C1)N1C(=O)c2ccccc2C1=O
IC50 (Acetylcholinesterase [1]): 55.3 nM | IC50 (Beta-secretase 1 [2]): 2.07 nM

O=c1c(/C=N/Nc2ccc(C(F)(F)F)cc2)coc2cc3oc(-c4cccc(F)c4)cc3cc12
IC50 (Acetylcholinesterase [1]): 7600 nM | IC50 (Beta-secretase 1 [2]): 17300 nM

CC(C)=CCC/C(C)=C/CC/C(C)=C\Cc1c(O)cc(O)c(CC=C(C)C)c1-c1cc2ccc(O)cc2o1
IC50 (Acetylcholinesterase [1]): 13900 nM | IC50 (Beta-secretase 1 [2]): 2030 nM

CCC1=CC2Cc3nc4cc(Cl)ccc4c(NCCCN4CCC(CC5Cc6cc(OC)c(OC)cc6C5)CC4)c3C(C1)C2 (stereo in doubt; (-)-36b)
IC50 (Acetylcholinesterase [1]): 3.85 nM
